From patent publication EP1171141B1, “MEDICAMENT FOR INHIBITING THE NF-kB TRANSCRIPTION FACTOR” (Max Zeller Söhne AG, priority 1999, dated 2000) come the findings set out here.

What all share (assay type): cell-based
Test [1] deals with T1, COX-1 (Homo sapiens, UniProt P23219).
T1 construct: Die Messung der COX1 Hemmung erfolgte in HEL-Zellen nach der Methode von Berg et al; endogenous in cells; host or cells: HEL cells
Kind of test: COX-1 inhibition in HEL cells (Tromboxan B2 by ELISA). As for the experimental part: In einer Variante wurden Testsubstanz und LPS zeitgleich eingesetzt. Die Messung der COX1 Hemmung erfolgte in HEL-Zellen nach der Methode von Berg et al., J. Pharmacol. Toxicol. Methods 37, 179-186 (1997). Dabei wurden HEL Zellen mit unterschiedlichen Konzentrationen der Testsubstanzen während 30 min inkubiert, anschliessend Arachidonsäure zugesetzt (Endkonzentration 30 µM), während 15 Min. inkubiert und das gebildete Tromboxan B2 mittels ELISA gemessen.

In test [2] the test system is NF-κB. Kind of test: NF-κB inhibition of test compounds, NF-κB binding to DNA by EMSA (Jurkat T cells and cell extracts). Conditions: Jurkat T cells. The text has this:
Bestimmt wurde dabei die in-vivo und die in-vitro NF-κB Bindung an DNA durch Messung der elektrophoretischen Mobilitätsverschiebung.
Die in vivo Bindung wurde mit Jurkat T-Zellen durchgeführt. Die Zellen wurden während einer Stunde mit verschiedenen Konzentrationen der verschiedenen Extrakte inkubiert und anschliessend mit TNF-α während einer Stunde stimuliert. Total-Protein-Extrakte der Zellen wurden gewonnen und in einem Assay auf elektrophoretische Mobilitätsverschiebung (electrophoretic mobility shift assay, EMSA) auf NF-κB-bindende Aktivität geprüft.
Die in vitro Bindung wurde ebenfalls mit Jurkat T-Zellen geprüft. Zellextrakle von stimulierten wie unstimulierten Zellen wurden gewonnen. Gleiche Proteinmengen (10-20 µg) wurden 2 Stunden mit Konzentrationsreihen der zu testenden Verbindungen inkubiert und schliesslich auf elektrophoretische Mobilitätsverschiebung (EMSA) analysiert.

Test [3] deals with T2, COX-2 (Homo sapiens, UniProt P35354).
T2 construct: Dazu wurden Mono Mac 6 Zellen mit unterschiedlichen Konzentrationen der Testsubstanzen während 30 min inkubiert; endogenous in cells; host or cells: Mono Mac 6 cells, LPS-stimulated
T2 sequence (P35354 18-604): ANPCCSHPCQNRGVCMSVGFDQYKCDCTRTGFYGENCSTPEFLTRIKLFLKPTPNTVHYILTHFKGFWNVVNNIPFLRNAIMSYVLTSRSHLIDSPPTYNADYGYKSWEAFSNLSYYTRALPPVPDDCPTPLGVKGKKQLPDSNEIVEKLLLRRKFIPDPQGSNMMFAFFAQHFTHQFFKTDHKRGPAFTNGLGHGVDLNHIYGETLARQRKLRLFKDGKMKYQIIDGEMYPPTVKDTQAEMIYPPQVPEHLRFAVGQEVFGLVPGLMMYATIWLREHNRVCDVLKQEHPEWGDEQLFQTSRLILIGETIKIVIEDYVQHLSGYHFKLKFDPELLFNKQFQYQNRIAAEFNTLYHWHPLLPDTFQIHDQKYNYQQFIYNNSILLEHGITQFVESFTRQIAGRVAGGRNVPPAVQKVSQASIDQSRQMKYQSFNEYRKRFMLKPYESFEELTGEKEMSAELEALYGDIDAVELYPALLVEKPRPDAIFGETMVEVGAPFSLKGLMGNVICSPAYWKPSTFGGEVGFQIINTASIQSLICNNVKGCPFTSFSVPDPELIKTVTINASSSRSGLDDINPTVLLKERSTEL
Kind of test: cell-based. The procedure:
Zur Bestimmung der COX-2-Hemmwirkung wurde allgemein nach der Methode von Berg et al., J. Pharmacol. Toxicol.
Dazu wurden Mono Mac 6 Zellen mit unterschiedlichen Konzentrationen der Testsubstanzen während 30 min inkubiert. Anschliessend wurde Lipopolysaccharid (LPS, 100 ng/ml) zupipettiert und nochmals sechs Stunden inkubiert. Anschliessend wurde Arachidonsäure zugegeben (Endkonzentration 30 µM), während 15 Min. inkubiert und das gebildete Keto-PGF1α mittels ELISA (Enzyme Linked Immuno Sorbent Assay) bestimmt.
In einer Variante wurden Testsubstanz und LPS zeitgleich eingesetzt. Die Messung der COX1 Hemmung erfolgte in HEL-Zellen nach der Methode von Berg et al., J. Pharmacol. Toxicol. […] Dabei wurden HEL Zellen mit unterschiedlichen Konzentrationen der Testsubstanzen während 30 min inkubiert, anschliessend Arachidonsäure zugesetzt (Endkonzentration 30 µM), während 15 Min. inkubiert und das gebildete Tromboxan B2 mittels ELISA gemessen. […]

Molecules are shown by their SMILES. Some results are limits rather than exact numbers.

T1 sequence (P23219 24-599): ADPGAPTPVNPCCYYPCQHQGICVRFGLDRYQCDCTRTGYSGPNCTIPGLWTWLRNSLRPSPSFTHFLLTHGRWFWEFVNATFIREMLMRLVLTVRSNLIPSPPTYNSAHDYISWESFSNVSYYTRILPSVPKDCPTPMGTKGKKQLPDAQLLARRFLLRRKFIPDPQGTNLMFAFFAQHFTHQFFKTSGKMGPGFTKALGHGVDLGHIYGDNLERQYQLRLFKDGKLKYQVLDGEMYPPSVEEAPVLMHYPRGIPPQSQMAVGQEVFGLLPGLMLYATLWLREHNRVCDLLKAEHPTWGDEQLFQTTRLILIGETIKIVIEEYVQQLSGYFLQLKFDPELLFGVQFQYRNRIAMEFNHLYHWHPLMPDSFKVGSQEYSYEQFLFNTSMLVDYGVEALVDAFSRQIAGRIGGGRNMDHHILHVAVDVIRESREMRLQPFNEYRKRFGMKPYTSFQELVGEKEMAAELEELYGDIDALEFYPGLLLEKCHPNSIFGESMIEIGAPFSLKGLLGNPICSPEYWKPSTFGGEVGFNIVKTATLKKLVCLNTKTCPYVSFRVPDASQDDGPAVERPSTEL

As to `O=C1c2ccccc2-n2c1nc1ccccc1c2=O` [Verbindung 1, Indolo[2,1-b]chinazolin-6,12-dion], the concentration for half-maximal inhibition (IC50) in test [1] stood at 2000 nM.

`O=C1c2ccccc2-n2c1nc1ccc(Cl)cc1c2=O` [Verbindung 5]: the IC50 in test [1] was 10000 nM; in test [3], 2000 nM. Also, in test [2], the “NF-κB: Grenzkonzentration, bei der eben noch ein Hemmeffekt im EMSA feststellbar ist” value (from here on “NF-κB: Grenzkonzentration”) worked out at 50 µM/Liter.

As to `O=C1c2cc(Cl)ccc2-n2c1nc1ccccc1c2=O` [Verbindung 10], the IC50 in test [1] was 1000 nM; in test [3] it was 500 nM. Further, in test [2], the “NF-κB: Grenzkonzentration” value was determined as 5 µM/Liter.

`Nc1ccc2nc3n(c(=O)c2c1)-c1ccc(F)cc1C3=O` [Verbindung 20]: the half-maximal inhibitory concentration (IC50) was determined as 5000 nM in test [1] and 500 nM in test [3]. The “NF-κB: Grenzkonzentration” value in test [2] is 5 µM/Liter.

With `Cc1cc(C)c2nc3n(c(=O)c2c1)-c1ccc(F)cc1C3=O` [Verbindung 24], the IC50 in test [1] and in test [3] was more than 50000 nM in each case. The “NF-κB: Grenzkonzentration” value in test [2] is listed as more than 100 µM/Liter.

On to `CN1CCN(c2ccc3c(=O)n4c(nc3c2)C(=O)c2cc(F)ccc2-4)CC1` [Verbindung 32], for which the IC50 in test [1] and in test [3] was 1000 nM throughout. Also, the “NF-κB: Grenzkonzentration” value in test [2] is reported as 10 µM/Liter.

As for `CCOC(=O)c1ccc2c(c1)C(=O)c1nc3ccccc3c(=O)n1-2` [Verbindung 37], the IC50 in test [1] and in test [3] was more than 50000 nM each time. Moreover, the “NF-κB: Grenzkonzentration” value in test [2] was more than 100 µM/Liter.

As for `CC1CN(c2cc3c(cc2F)C(=O)c2nc4ccccc4c(=O)n2-3)CCN1C(=O)OC(C)(C)C` (centres unmarked) [Verbindung 42], the IC50 in test [1] and in test [3] was more than 50000 nM each time. Moreover, the “NF-κB: Grenzkonzentration” value in test [2] is given as more than 100 µM/Liter.

In the case of `CCCCCCCCS(=O)(=O)c1ccc2c(c1)C(=O)c1nc3c(OC)cccc3c(=O)n1-2` [Verbindung 69], the IC50 in test [1] and in test [3] was more than 50000 nM each time. In test [2], the “NF-κB: Grenzkonzentration” value is reported as more than 100 µM/Liter.

With `O=C1c2cc(Cl)ccc2-n2c1nc1cc(N3CCOCC3)ccc1c2=O` [Verbindung 86], the 50% inhibitory concentration (IC50) was 5000 nM in test [1] and 10 nM in test [3]. In addition, the “NF-κB: Grenzkonzentration” value in test [2] is 0,5 µM/Liter. For the same molecule, in test [3] (COX-2 versus COX-1, statement on Table 2), the “präferentielle Hemmung der induzierbaren COX-2” value is “besonders deutliche präferentielle Hemmung der induzierbaren COX-2”.

As to `CN(CC(=O)O)c1ccc2c(=O)n3c(nc2c1)C(=O)c1cc(Cl)ccc1-3` [Verbindung 99], the IC50 in test [1] came out at 5000 nM; in test [3] it was 500 nM. For the same molecule, the “NF-κB: Grenzkonzentration” value in test [2] is given as 1 µM/Liter.

As for `CN(CCO)c1ccc2c(=O)n3c(nc2c1)C(=O)c1cc(OC(F)(F)F)ccc1-3` [Verbindung 110], the concentration for half-maximal inhibition (IC50) in test [1] amounted to 2000 nM; in test [3], 500 nM. In addition, in test [2], the “NF-κB: Grenzkonzentration” value amounted to 5 µM/Liter.
